Drawing on ChEMBL document CHEMBL5653631, “A Potent and Selective ULK1 Inhibitor Suppresses Autophagy and Sensitizes Cancer Cells to Nutrient Stress” (iScience, 2018), this text covers inhibition and fold change (FC) for three compounds.

Experiment [1] concerns the target T1, Myotonin-protein kinase (Homo sapiens) (UniProt Q09013).
T1 sequence (whole entry): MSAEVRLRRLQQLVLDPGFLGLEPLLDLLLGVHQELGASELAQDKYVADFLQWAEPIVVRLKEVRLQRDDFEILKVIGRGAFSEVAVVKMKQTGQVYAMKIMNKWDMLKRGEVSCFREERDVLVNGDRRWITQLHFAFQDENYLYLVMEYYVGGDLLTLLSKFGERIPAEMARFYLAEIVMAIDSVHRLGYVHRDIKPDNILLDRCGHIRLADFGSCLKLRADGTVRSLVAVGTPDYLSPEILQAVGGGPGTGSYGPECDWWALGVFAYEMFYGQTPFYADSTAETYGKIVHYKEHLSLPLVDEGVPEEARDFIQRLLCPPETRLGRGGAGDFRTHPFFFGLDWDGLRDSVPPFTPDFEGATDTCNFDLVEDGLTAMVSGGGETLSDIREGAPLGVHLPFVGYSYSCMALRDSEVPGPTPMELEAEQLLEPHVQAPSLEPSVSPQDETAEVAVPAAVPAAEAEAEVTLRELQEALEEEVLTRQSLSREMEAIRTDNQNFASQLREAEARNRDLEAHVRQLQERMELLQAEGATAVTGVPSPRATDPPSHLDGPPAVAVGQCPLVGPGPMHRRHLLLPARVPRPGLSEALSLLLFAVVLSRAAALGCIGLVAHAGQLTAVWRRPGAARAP
Nature of the experiment: Inhibition of human recombinant DMPK1 at 15 nM in presence of ATP by radiometric assay relative to control.

Experiment [2] is filed under the species Homo sapiens. Nature of the experiment: Inhibition of human recombinant KHS1 at 15 nM in presence of ATP by radiometric assay relative to control.
Experiment [3] addresses Serine/threonine-protein kinase PAK 5 (Homo sapiens) (UniProt Q9P286). Nature of the experiment: Inhibition of human recombinant PAK5 at 15 nM in presence of ATP by radiometric assay relative to control.
Experiment [4] has as its target T2, Serine/threonine-protein kinase PLK4 (Homo sapiens) (UniProt O00444).
T2 sequence (whole entry): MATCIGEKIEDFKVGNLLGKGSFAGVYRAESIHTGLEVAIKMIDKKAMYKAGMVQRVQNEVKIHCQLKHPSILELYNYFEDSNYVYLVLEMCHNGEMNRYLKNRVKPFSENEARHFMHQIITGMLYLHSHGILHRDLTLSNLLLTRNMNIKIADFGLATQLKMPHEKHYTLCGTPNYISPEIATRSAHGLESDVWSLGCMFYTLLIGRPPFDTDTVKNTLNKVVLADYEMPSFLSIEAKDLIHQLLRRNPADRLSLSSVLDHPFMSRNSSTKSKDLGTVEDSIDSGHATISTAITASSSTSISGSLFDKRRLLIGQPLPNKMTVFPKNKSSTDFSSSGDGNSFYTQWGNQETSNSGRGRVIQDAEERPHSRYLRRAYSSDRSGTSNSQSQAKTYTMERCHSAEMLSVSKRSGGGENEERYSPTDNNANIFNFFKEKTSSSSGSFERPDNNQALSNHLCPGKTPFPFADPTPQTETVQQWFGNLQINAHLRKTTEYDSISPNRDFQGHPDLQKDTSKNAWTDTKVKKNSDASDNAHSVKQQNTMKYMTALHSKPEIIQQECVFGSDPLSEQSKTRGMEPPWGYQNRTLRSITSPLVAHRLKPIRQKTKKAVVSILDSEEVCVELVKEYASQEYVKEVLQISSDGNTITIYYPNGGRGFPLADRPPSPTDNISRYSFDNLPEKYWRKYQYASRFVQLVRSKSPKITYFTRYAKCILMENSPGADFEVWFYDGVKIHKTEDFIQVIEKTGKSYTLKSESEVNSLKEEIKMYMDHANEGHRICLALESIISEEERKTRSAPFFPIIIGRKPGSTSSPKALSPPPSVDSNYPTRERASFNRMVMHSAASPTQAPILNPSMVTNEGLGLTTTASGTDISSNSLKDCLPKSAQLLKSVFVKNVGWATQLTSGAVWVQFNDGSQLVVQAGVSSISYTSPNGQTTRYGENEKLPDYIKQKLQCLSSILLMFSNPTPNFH
The experiment in a line: Inhibition of human recombinant PLK4 at 15 nM in presence of ATP by radiometric assay relative to control.

Experiment [5] deals with Dual specificity tyrosine-phosphorylation-regulated kinase 1B (Homo sapiens) (UniProt Q9Y463). Nature of the experiment: Inhibition of human recombinant DYRK1B at 15 nM related to control ULK1.
Experiment [6] deals with T3, Tyrosine-protein kinase TXK (Homo sapiens) (UniProt P42681).
T3 sequence (whole entry): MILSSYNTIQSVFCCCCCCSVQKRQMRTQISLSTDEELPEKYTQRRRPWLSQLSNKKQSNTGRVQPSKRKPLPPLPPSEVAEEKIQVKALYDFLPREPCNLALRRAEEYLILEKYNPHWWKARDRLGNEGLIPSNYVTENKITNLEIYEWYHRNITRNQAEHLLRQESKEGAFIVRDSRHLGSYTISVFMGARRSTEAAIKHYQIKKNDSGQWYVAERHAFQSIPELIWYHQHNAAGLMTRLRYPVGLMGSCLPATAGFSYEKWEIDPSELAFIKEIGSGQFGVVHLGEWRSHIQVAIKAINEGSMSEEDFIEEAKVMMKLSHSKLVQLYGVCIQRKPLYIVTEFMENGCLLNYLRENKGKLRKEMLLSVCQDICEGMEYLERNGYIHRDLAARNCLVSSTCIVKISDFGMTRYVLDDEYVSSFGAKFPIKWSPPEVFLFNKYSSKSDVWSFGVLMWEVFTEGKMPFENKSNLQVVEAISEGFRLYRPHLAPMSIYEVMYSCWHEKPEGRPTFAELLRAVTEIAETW
Nature of the experiment: Inhibition of human recombinant TXK at 15 nM related to control ULK1.

Experiment [7] concerns the target Serine/threonine-protein kinase PLK2 (Homo sapiens) (UniProt Q9NYY3). The experiment in a line: Inhibition of human recombinant PLK2 at 40 nM in presence of ATP by radiometric assay relative to control.
Experiment [8] addresses Maternal embryonic leucine zipper kinase (Homo sapiens) (UniProt Q14680). Nature of the experiment: Inhibition of human recombinant MELK at 40 nM related to control ULK1.
Experiment [9] has as its target Mitogen-activated protein kinase 8 (Homo sapiens) (UniProt P45983). Nature of the experiment: Inhibition of human recombinant JNK1 at 500 nM in presence of ATP by radiometric assay relative to control.
For experiment [10], the species on record is Homo sapiens. Nature of the experiment: Inhibition of human recombinant p70S6K at 500 nM in presence of ATP by radiometric assay relative to control.

In general, inhibition refers to how much of the control response was suppressed.

Chain of Serine/threonine-protein kinase PLK2 (Homo sapiens) (Q9NYY3 whole entry, looked up): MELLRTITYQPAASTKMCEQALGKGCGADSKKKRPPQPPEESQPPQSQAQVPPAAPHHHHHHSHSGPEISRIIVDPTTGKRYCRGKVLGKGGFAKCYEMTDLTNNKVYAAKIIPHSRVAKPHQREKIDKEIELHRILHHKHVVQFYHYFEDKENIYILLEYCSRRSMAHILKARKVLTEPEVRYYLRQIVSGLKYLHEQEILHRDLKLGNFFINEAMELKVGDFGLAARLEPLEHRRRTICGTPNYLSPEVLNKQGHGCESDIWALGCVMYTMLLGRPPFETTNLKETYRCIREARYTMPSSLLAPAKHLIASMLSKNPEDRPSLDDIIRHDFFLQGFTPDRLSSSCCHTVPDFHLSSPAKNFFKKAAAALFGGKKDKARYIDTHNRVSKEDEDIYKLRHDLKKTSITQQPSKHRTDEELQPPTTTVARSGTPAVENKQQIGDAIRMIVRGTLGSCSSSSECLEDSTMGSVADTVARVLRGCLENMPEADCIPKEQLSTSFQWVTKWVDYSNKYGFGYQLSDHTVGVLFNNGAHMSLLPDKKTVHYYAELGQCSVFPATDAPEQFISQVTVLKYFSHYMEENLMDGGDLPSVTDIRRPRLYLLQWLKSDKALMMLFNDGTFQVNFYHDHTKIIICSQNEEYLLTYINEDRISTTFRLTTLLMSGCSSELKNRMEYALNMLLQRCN
Chain of Dual specificity tyrosine-phosphorylation-regulated kinase 1B (Homo sapiens) (Q9Y463 whole entry, looked up): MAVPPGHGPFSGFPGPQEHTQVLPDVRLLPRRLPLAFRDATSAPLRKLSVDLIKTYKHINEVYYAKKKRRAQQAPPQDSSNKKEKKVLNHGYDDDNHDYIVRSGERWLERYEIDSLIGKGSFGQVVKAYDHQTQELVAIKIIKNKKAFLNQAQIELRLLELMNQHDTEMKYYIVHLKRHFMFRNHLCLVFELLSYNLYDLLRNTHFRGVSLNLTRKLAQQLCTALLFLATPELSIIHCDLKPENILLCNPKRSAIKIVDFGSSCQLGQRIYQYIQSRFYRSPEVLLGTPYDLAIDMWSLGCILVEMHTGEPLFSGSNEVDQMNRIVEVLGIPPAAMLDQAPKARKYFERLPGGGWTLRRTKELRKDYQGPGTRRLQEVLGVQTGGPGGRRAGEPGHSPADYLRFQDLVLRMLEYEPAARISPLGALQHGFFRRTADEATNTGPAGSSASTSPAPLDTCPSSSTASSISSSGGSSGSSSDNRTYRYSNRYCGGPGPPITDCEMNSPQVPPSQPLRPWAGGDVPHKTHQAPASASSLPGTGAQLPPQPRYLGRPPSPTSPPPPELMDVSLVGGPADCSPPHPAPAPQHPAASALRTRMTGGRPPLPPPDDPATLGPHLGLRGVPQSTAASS
Chain of Serine/threonine-protein kinase PAK 5 (Homo sapiens) (Q9P286 whole entry, looked up): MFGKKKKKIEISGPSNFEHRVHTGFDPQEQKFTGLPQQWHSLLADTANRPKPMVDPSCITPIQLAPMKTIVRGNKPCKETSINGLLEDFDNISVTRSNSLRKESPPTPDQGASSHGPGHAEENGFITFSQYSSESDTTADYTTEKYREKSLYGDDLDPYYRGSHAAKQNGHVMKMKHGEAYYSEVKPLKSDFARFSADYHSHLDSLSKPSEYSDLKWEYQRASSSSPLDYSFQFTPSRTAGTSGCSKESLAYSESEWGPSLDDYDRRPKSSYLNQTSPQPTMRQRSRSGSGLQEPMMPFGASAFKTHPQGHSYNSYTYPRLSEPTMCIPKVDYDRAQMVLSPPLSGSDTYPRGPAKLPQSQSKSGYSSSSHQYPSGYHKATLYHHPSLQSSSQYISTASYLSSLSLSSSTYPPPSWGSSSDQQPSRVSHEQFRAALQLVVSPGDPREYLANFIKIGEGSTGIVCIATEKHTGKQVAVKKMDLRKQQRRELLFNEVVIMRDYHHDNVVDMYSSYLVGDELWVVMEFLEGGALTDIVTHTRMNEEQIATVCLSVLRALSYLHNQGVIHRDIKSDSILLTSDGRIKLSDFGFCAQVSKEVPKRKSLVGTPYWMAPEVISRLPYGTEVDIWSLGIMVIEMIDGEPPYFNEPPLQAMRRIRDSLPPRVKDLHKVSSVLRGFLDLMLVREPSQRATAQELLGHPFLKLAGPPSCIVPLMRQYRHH
Chain of Maternal embryonic leucine zipper kinase (Homo sapiens) (Q14680 whole entry, looked up): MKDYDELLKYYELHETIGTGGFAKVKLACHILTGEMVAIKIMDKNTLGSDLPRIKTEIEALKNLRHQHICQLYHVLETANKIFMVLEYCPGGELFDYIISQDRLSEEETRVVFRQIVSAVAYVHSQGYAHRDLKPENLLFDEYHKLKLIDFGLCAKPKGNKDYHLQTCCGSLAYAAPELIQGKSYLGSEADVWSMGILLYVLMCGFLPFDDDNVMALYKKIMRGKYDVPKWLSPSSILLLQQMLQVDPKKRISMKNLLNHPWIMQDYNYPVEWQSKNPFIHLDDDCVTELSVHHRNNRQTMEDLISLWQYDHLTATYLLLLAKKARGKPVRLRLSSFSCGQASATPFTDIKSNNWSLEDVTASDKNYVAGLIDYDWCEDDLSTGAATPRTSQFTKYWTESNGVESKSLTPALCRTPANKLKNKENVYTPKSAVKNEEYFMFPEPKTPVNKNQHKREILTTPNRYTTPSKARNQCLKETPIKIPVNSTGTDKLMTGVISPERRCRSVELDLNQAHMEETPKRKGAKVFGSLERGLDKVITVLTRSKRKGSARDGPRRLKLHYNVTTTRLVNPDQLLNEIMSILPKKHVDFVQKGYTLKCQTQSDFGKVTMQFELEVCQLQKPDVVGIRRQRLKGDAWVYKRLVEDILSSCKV
Chain of Mitogen-activated protein kinase 8 (Homo sapiens) (P45983 whole entry): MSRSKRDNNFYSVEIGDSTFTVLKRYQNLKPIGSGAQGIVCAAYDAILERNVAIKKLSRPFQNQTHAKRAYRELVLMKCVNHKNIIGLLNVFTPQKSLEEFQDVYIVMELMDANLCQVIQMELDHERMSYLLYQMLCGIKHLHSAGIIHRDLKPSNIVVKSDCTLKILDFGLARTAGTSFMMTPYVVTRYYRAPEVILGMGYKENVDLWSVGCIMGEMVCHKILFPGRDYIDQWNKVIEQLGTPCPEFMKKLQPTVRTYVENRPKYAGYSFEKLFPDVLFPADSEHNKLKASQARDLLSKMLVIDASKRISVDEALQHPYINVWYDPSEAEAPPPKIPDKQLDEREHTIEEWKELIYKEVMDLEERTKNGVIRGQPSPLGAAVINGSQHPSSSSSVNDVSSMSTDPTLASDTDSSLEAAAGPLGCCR

With `CC(C)[C@H](NC(=O)c1cc(-c2cnn3cc(-c4ccc(OCCN5CCCCC5)cc4)cnc23)cs1)C(F)(F)F`, the inhibition in experiment [1] is 0%; in the experiment filed under Homo sapiens [2], 14%; in experiment [3] it was 0%; in experiment [4] it was 31%. Moreover, the fold change (FC) in experiment [5] is 0.74; in experiment [6], 0.67.

Take `O=C(N[C@@H](C1CC1)C(F)(F)F)c1cc(-c2cnn3cc(-c4ccc(F)cc4)cnc23)cs1`: in [7], the inhibition worked out at 3%. In addition, the fold change (FC) in [8] stood at 0.27.

`CNC(=O)c1ccccc1Oc1nc(Nc2cc(OC)c(OC)c(OC)c2)ncc1Br`: the inhibition in [9] came out at 1%; in the experiment listed under Homo sapiens [10], 0%.
